Results: patent publication US9732061B2, “Cinnoline derivatives useful as CB-1 receptor inverse agonists” (Janssen Pharmaceutica NV, priority 2015, dated 2017)

How the values were obtained:
[1] = molecular target: Human CB2R (Cannabanoid receptor 2) (Homo sapiens (Human), UniProt P34972); assay: CB-2 in vitro cAMP (HTRF) assay; format: cell-based; conditions: HEK-293 cells stably transfected with human CB2R, 250 nM Forskolin, mean where tested more than once
From the text: (§1) CB1 and CB2 receptors are Gi-coupled GPCR. Activation of CB1 and CB2 receptors results in a decrease in cAMP production. An inverse agonist of the CB1 or CB2 receptor results in the opposite effect, an increase of cAMP production. The principle of this assay is based on HTRF® technology (Homogeneous Time-Resolved Fluorescence). The method is a competitive immunoassay between native cAMP produced by cells and the cAMP labeled with the fluorophore d2. The tracer binding is quantified by a Mab anti-cAMP labeled with Eu3+TBP-NHS Cryptate (supplied as part of the assay kit). The specific signal (i.e. energy transfer) is inversely proportional to the concentration of cAMP in the standard or sample.
(§2) Biological Example 1: CB-1 and CB-2 In Vitro Assay
(§3) Human CB1R (Cannabanoid receptor 1) was stably transfected in HEK-293 cells (DiscoveRx, cat: 93-0200C1). Human CB2R (Cannabanoid receptor 2) was stably transfected in HEK-293 cells (DiscoveRx, cat: 93-0201C1). Cell cultures were maintained in media: DMEM (Invitrogen Cat#12430-054) supplemented with 10% HI FBS (Invitrogen Cat#16140-071), 1% L-glutamine (Invitrogen Cat#25030-081), 0.2 mg/ml Hygromycin B (Invitrogen Cat#10687-010), 600 μg/mL G418 (Invitrogen Cat#10131-035), and 1×Penn/Strep (Invitrogen 15140-122). After cell expansion, aliquots were cryo-stored in media containing 5% DMSO (Pierce Cat#20684).
(§4) One day prior to experiments media was warmed to 37° C. and the cryo-stored cells were thawed in a 37° C. water bath. The cells were then added to media (10× volume) and the mixture was centrifugated at 1000 RPM for 5 min. The supernate was removed and the cells were re-suspended in media. A sample of the cell suspension was evaluated on a Cedex XS automated cell counter (Innovatis Systems) to determine viable cells/ml. Additional media was added to the cells to achieve a final cell density of 4E5 cells/mL. The cells were then plated into 384 well PDL white solid bottom plates (Greiner, Cat#781945) at 20 μL per well using a Multidrop (Thermo Scientific). Cells were removed from Row P (location of cAMP standards). Two columns of cells were plated into a clear bottom 384 well PDL coated plate (Greiner, Cat#781944) to view confluence the day of the assay. The cell plates were lidded and stored for 15 minutes in a hood, then transferred to an incubator (37° C., 5% CO2, 95% humidity) overnight.
(§5) DMSO was added to all wells of 384 well V bottom polystyrene plate (Greiner, Cat#781280) except to columns 1 and 13, rows O and P and wells M13-M23 and N13-N23. Test compounds (60 μL, 10 mM) were added to Column 1 and 13 (A1 through N1 and A13 through L13). Test compounds were serially diluted 1/3 by transferring and mixing 20 μl sample with 40 μL DMSO.
(§6) DMSO (40 μL) was added to wells of 384 well V bottom polystyrene plate: O2 through O11, M14 through M23, N14 through N23, and O14 through O23. AM630 (also known as [6-iodo-2-methyl-1-[2-(4-morpholinyl)ethyl]-1H-indol-3-yl](4-methoxyphenyl)-methanone, Cayman Chemical, Cat#10006974) (60 μL, 10 mM) was added to O1; and 1-(2,4-dichlorophenyl)-7-[(4-fluorophenyl)methylene]-4,5,6,7-tetrahydro-N-1-piperidinyl-1H-indazole-3-carboxamide (60 μL, 10 mM) was added to N13. The control was serially diluted 1/3 by transferring and mixing 20 μl sample with 40 μL DMSO. This process resulted 11 doses per control, 10 mM to […].
(§7) Cells plated the day prior to the assay in clear bottom plates were viewed on an inverse microscope to ensure confluency in the range of 60-75%. […]

[2] = molecular target: Human CB1R (Cannabanoid receptor 1) (Homo sapiens (Human), UniProt P21554); assay: CB-1 in vitro cAMP (HTRF) assay; format: cell-based; conditions: HEK-293 cells stably transfected with human CB1R, 250 nM Forskolin, mean where tested more than once
Sequence of Human CB1R (Cannabanoid receptor 1) (P21554 whole entry): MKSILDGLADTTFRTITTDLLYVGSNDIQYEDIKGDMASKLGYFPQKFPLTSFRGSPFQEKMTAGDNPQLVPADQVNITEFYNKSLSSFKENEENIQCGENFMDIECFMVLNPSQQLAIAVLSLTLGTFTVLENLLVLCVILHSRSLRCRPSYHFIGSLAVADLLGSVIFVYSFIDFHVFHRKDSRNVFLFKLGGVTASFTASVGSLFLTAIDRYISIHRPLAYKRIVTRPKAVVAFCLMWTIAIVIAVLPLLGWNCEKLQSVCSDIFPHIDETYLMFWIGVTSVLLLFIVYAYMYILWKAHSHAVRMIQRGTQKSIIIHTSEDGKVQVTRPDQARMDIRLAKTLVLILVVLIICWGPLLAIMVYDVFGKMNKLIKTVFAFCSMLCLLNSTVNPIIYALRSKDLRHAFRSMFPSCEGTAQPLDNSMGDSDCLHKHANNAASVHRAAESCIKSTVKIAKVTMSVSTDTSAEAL
From the text: as §1, §2, §3, §4, §5, §6, §7

Sequence of Human CB2R (Cannabanoid receptor 2) (P34972 whole entry): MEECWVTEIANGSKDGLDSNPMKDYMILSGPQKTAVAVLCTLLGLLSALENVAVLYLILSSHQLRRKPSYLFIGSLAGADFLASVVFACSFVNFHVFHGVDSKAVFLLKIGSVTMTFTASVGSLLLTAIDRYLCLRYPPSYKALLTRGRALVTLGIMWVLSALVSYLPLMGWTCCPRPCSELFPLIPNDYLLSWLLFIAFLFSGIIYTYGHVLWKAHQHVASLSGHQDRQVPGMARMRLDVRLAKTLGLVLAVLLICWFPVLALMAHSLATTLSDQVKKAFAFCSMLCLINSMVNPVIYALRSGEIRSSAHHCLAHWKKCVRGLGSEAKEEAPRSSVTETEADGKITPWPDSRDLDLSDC

EC50 [1] [µM]	EC50 [2] [µM]	SMILES
> 10	0.463	O=C(c1ccccc1)N1CCC(Nc2cnnc3ccc(C(c4ccc(Cl)cc4)c4ccc(Cl)cc4)cc23)CC1 [Compound 3, (4-((6-(bis(4-chlorophenyl)methyl)cinnolin-4-yl)amino)piperidin-1-yl)(phenyl)methanone]
2.15	0.262	O=C(O)c1ccc(S(=O)(=O)N2CCC(Nc3cnnc4ccc(C(c5ccc(Cl)cc5)c5ccc(Cl)cc5)cc34)CC2)s1 [Compound 16, 5-(4-(6-(bis(4-chlorophenyl)methyl)cinnolin-4-ylamino)piperidin-1-ylsulfonyl)thiophene-2-carboxylic acid]
> 10	0.455	O=S(=O)(N1CCC(Nc2cnnc3ccc(C(O)(c4ccc(Cl)cc4)c4ccc(Cl)cc4)cc23)CC1)C(F)(F)F [Compound 1, bis(4-chlorophenyl)(4-((1-((trifluoromethyl)sulfonyl)piperidin-4-yl)amino)cinnolin-6-yl)methanol]
0.396	0.011	COc1ccc(C(c2ccc(Cl)cc2)c2ccc3nncc(NC4CCN(S(=O)(=O)C(F)(F)F)CC4)c3c2)cc1 (stereo not shown) [Compound 35, 6-((4-chlorophenyl)(4-methoxyphenyl)methyl)-N-(1-(trifluoromethylsulfonyl)piperidin-4-yl)cinnolin-4-amine]
> 10	0.03	O=S(=O)(N1CCC(Nc2cnnc3ccc(C(c4ccc(F)cc4)c4ccc(Cl)cc4)cc23)CC1)C(F)(F)F (stereo not shown) [Compound 34, 6-((4-chlorophenyl)(4-fluorophenyl)methyl)-N-(1-(trifluoromethylsulfonyl)piperidin-4-yl)cinnolin-4-amine]
1.98	0.04	O=C(O)c1csc(S(=O)(=O)N2CCC(Nc3cnnc4ccc(C(c5ccc(Cl)cc5)c5ccc(Cl)cc5)cc34)CC2)c1 [Compound 32, 5-[4-([6-[bis(4-chlorophenyl)methyl]cinnolin-4-yl]amino)piperidine-1-sulfonyl]thiophene-3-carboxylic acid]
8.1	10.1	O=C(O)c1ccc(N2CCC(Nc3cnnc4ccc(C(c5ccc(Cl)cc5)c5ccc(Cl)cc5)cc34)CC2)cc1 [Compound 17, 4-(4-(6-(bis(4-chlorophenyl)methyl)cinnolin-4-ylamino)piperidin-1-yl)benzoic acid]
> 10	0.2	CC(C)(C)OC(=O)N1CCC(Nc2cnnc3ccc(C(O)(c4ccc(Cl)cc4)c4ccc(Cl)cc4)cc23)CC1 [Compound 2, tert-butyl 4-((6-(bis(4-chlorophenyl)(hydroxy)methyl)cinnolin-4-yl)amino)piperidine-1-carboxylate]
> 10	0.254	OC(c1ccc(Cl)cc1)(c1ccc(Cl)cc1)c1ccc2nncc(NCc3cccc(C(F)(F)F)c3)c2c1 [Compound 6, bis(4-chlorophenyl)(4-((3-(trifluoromethyl)benzyl)amino)cinnolin-6-yl)methanol]
2.79	5.4	O=C(O)c1ccc(CCNc2cnnc3ccc(C(c4ccc(Cl)cc4)c4ccc(Cl)cc4)cc23)cc1 [Compound 37, 4-(2-(6-(bis(4-chlorophenyl)methyl)cinnolin-4-ylamino)ethyl)benzoic acid]
> 10	1.69	Clc1ccc(C(c2ccc(Cl)cc2)c2ccc3nncc(NC4CCN(Cc5ccccc5)C4)c3c2)cc1 (stereo not shown) [Compound 28, N-(1-benzylpyrrolidin-3-yl)-6-(bis(4-chlorophenyl)methyl)cinnolin-4-amine]
4.7	0.079	O=S(=O)(N1CCC(Nc2cnnc3ccc(C(c4ccc(F)cc4)c4ccc(F)cc4)cc23)CC1)C(F)(F)F [Compound 33, 6-(bis(4-fluorophenyl)methyl)-N-(1-(trifluoromethylsulfonyl)piperidin-4-yl)cinnolin-4-amine]
5.6	1.28	O=C(O)c1ccc(S(=O)(=O)N2CCC(Nc3cnnc4ccc(C(c5ccc(Cl)cc5)c5ccc(Cl)cc5)cc34)CC2)o1 [Compound 14, 5-(4-(6-(bis(4-chlorophenyl)methyl)cinnolin-4-ylamino)piperidin-1-ylsulfonyl)furan-2-carboxylic acid]
> 10	5.09	O=C(O)c1cccc(CCN2CCC(Nc3cnnc4ccc(C(c5ccc(Cl)cc5)c5ccc(Cl)cc5)cc34)CC2)c1 [Compound 23, 3-[2-[4-([6-[bis(4-chlorophenyl)methyl]cinnolin-4-yl]amino)piperidin-1-yl]ethyl]benzoic acid]
0.665	0.028	O=S(=O)(N1CCC(Nc2cnnc3ccc(C(c4ccc(Cl)cc4)c4nccs4)cc23)CC1)C(F)(F)F (stereo not shown) [Compound 36, 6-((4-chlorophenyl)(thiazol-2-yl)methyl)-N-(1-(trifluoromethylsulfonyl)piperidin-4-yl)cinnolin-4-amine]
3.35	0.013	O=S(=O)(N1CCC(Nc2cnnc3ccc(C(c4ccc(Cl)cc4)c4ccc(Cl)cc4)cc23)CC1)C(F)(F)F [Compound 5, 6-(bis(4-chlorophenyl)methyl)-N-(1-((trifluoromethyl)sulfonyl)piperidin-4-yl)cinnolin-4-amine]
> 10	0.261	O=S(=O)(N1CCN(c2cnnc3ccc(C(c4ccc(Cl)cc4)c4ccc(Cl)cc4)cc23)CC1)C(F)(F)F [Compound 24, 6-[bis(4-chlorophenyl)methyl]-4-[4-(trifluoromethane)sulfonylpiperazin-1-yl]cinnoline]
9.9	9.5	O=C(O)c1ccccc1CN1CCC(Nc2cnnc3ccc(C(c4ccc(Cl)cc4)c4ccc(Cl)cc4)cc23)CC1 [Compound 18, 2-((4-(6-(bis(4-chlorophenyl)methyl)cinnolin-4-ylamino)piperidin-1-yl)methyl)benzoic acid]
> 10	0.04	FC(F)(F)c1ccc(CNc2cnnc3ccc(C(c4ccc(Cl)cc4)c4ccc(Cl)cc4)cc23)cc1 [Compound 9, 6-(bis(4-chlorophenyl)methyl)-N-(4-(trifluoromethyl)benzyl)cinnolin-4-amine]
> 10	5.94	O=C(O)c1ccccc1S(=O)(=O)N1CCC(Nc2cnnc3ccc(C(c4ccc(Cl)cc4)c4ccc(Cl)cc4)cc23)CC1 [Compound 19, 2-(4-(6-(bis(4-chlorophenyl)methyl)cinnolin-4-ylamino)piperidin-1-ylsulfonyl)benzoic acid]
6.5	0.302	O=C(O)c1cccc(CN2CCC(Nc3cnnc4ccc(C(c5ccc(Cl)cc5)c5ccc(Cl)cc5)cc34)CC2)c1 [Compound 12, 3-[[4-([6-[bis(4-chlorophenyl)methyl]cinnolin-4-yl]amino)piperidin-1-yl]methyl]benzoic acid]
5.93	1.16	Oc1ccc(CNc2cnnc3ccc(C(c4ccc(Cl)cc4)c4ccc(Cl)cc4)cc23)cc1 [Compound 21, 4-((6-(bis(4-chlorophenyl)methyl)cinnolin-4-ylamino)methyl)phenol]
1.48	0.302	O=C(O)c1ccc(S(=O)(=O)N2CCC(Nc3cnnc4ccc(C(c5ccc(Cl)cc5)c5ccc(Cl)cc5)cc34)CC2)cc1 [Compound 10, 4-(4-(6-(bis(4-chlorophenyl)methyl)cinnolin-4-ylamino)piperidin-1-ylsulfonyl)benzoic acid]
